Test results taken from US12048682B2, “Combination of micheliolide derivatives or nanoparticles with ionizing radiation and checkpoint inhibitors for cancer therapy” (The University of Chicago, priority 2018, dated 2024).

What was measured:
GL261 cells = test: In vitro cytotoxicity against glioma cells GL261 (MTS assay), with or without X-ray irradiation; format: cell-based, mouse
Experimental: GL261 cells were seeded onto 96-well plates at a density of 2000 cells/well and treated with various concentrations of the dimethylamino Michael adduct of MCL (dimethylamino micheliolide, […]) for 24 hours to allow for sufficient cellular uptake and conversion to MCL before irradiation. The cells were irradiated with varying amounts of X-ray irradiation and then incubated for an additional 24 hours. The culture medium was exchanged with fresh medium and further incubated for an additional 48 hours. The cell viability was then detected by (3-(4,5-dimethylthiazol-2-yl)-5-(3-carboxymethoxyphenyl)-2-(4-sulfophenyl)-2H-tetrazolium) (MTS) assay (Promega, Madison, Wisconsin, United States of America).

glioma GL261 tumor model [1] = test: In vivo antitumor activity, glioma GL261 tumor model on wildtype C57BL/6 mice (irradiation and PD-L1 antibody combination)
Experimental: The combination of DMAMCL, irradiation, and PD-L1 antibody was evaluated on the glioma GL261 tumor model on wildtype C57BL/6 mice. The treatment began 14 days after the inoculation of 2×10^6 GL261 cells. The mice were orally dosed with 50 mg/kg DMAMCL or PBS daily and irradiated with 2 Gy irradiation approximately 4 hrs after dosing, as applicable, for up to 12 days, starting when the tumors reached ˜150 mm^3-200 mm^3. One group of mice received two doses of 75 μg PD-L1 antibody on days 0 and 4. […] By the cessation of treatment, 3/5 tumors treated with this combination were barely palpable.

glioma GL261 tumor model [2] = test: In vivo antitumor activity, glioma GL261 tumor model on immunocompromised Rag2-/- C57BL/6 mice
Experimental: The combination of […] and irradiation was evaluated on the glioma GL261 tumor model on immunocompromised Rag2^-/- C57BL/6 mice. The mice were orally dosed with 50 mg/kg […] or PBS daily and irradiated with 4 Gy irradiation approximately 4 hrs after dosing, as applicable, for up to 7 days, starting when the tumors reached about […]. A Precision X-ray X-RAD 225 Image Guided Biologic Irradiator (Precision X-Ray Irradiation, North Branford, Connecticut, United States of America) was used for all animal studies. The instrument was set at 225 peak kilovoltage (kVp) and 13 milliampere (mA), with a 0.3 mm flat-board copper (Cu) filter installed before a 15-mm collimator. The irradiation was given in two successive fractions with incident angles of 0° and 180° for each mouse.

In the case of `CC1=C2CC[C@@](C)(O)[C@@H]2[C@H]2OC(=O)[C@@H](CN(C)C)[C@@H]2CC1` [DMAMCL, dimethylamino micheliolide], the “cytotoxicity (cell viability)” value (GL261 cells; 1 μM DMAMCL and X-ray irradiation of 8 Gy) was “significant cytotoxicity”, the “cytotoxicity (cell viability)” value (GL261 cells; 10 μM DMAMCL and X-ray irradiation of 8 Gy) was “significant cytotoxicity” and the “toxicity (cell viability)” value (GL261 cells; DMAMCL monotherapy, doses up to 10 μM, no irradiation) was “little to no toxicity”. The tumor growth (glioma GL261 tumor model [1]; DMAMCL 50 mg/kg oral daily plus 2 Gy irradiation plus 75 μg PD-L1 antibody on days 0 and 4, wildtype C57BL/6 mice) was “controlled and regressed tumor growth immediately after treatment”, the tumor growth (glioma GL261 tumor model [1]; DMAMCL 50 mg/kg oral daily plus 2 Gy irradiation, up to 12 days, wildtype C57BL/6 mice) was “suppressed tumor growth and ultimately led to tumor regression” and the tumor growth (glioma GL261 tumor model [1]; DMAMCL alone, 50 mg/kg oral daily up to 12 days, wildtype C57BL/6 mice) was “no effect on tumor growth”. For the same compound, the “tumors barely palpable by the cessation of treatment” value (glioma GL261 tumor model [1]; DMAMCL plus 2 Gy irradiation plus PD-L1 antibody, wildtype C57BL/6 mice) was 3/5, the tumor growth (glioma GL261 tumor model [2]; DMAMCL 50 mg/kg oral daily plus 4 Gy irradiation about 4 hrs after dosing, up to 7 days) was “successfully controlled tumor growth” and the tumor growth (glioma GL261 tumor model [2]; DMAMCL alone, 50 mg/kg oral daily up to 7 days) was “initially suppressed tumor growth”. For the same compound, the “tumor size compared to irradiation alone” value (glioma GL261 tumor model [2]; DMAMCL alone, 50 mg/kg oral daily up to 7 days, final tumor size) was “not significantly different in size”.
